Test results: patent publication US8236509B2, “Method for preparing antibody monolayers which have controlled orientation using peptide hybrid” (Korea Research Institute of Bioscience and Biotechnology, priority 2007, dated 2012)
Entries after “also recorded” stand apart in the source; their conditions may differ.

Columns and labels:
rabbit IgG [1] = target: T1, rabbit IgG (Oryctolagus cuniculus, UniProt P01870); experiment: Cy3-labeled antibody binding to glass plate surface-treated with peptide hybrid (fluorescence); parameters: purchased Sigma-Aldrich (USA); conditions: fluorescence image
T1 sequence (P01870 whole entry): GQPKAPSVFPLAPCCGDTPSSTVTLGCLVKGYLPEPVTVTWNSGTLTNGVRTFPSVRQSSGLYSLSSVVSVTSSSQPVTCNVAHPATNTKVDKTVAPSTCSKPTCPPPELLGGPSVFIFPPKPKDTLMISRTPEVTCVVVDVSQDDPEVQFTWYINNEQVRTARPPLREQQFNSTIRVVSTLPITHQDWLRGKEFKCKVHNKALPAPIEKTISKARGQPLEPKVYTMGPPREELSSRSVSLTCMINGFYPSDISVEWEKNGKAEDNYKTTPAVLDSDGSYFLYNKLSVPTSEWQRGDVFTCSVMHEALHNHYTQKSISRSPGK
Procedure: (§1) The glass plate was treated with a mixed solution of 95% sulfuric acid and 5% hydrogen peroxide (V/V 3:1) at 60° C. for 30 minutes, followed by washing with distilled water and ethanol. The washed glass plate was soaked in 1% APTS, followed by reaction for 4 hours at room temperature to introduce amine group. The amine group introduced glass plate was reacted in 1 M succinic anhydride-DMF solution at 37° C. for 4 hours to generate carboxyl group on the glass plate. The glass plate was washed with distilled water and ethanol and dried using nitrogen gas and then stored in a vacuum drier. The carboxyl group introduced glass plate was treated with a mixed solution of 0.1 M EDC and 0.025 M NHS for 15 minutes to activate its surface. The activated glass plate was washed with distilled water and dried using nitrogen gas. The peptide hybrid for protein immobilization of 1a was dissolved in PBS containing 40% glycerol at the final concentration of 0.5 mg/ml, which was dropped on the glass plate by 1 μl per each drop, followed by reaction for 2 hours. The non-reacted active ester remaining on the glass plate was inactivated by using 1 M of ethanolamine (pH 8.5) and washed with PBS. […]

[2] = system: human originated IgG (HIgGs 1-3); experiment: SPR binding capacity on peptide-hybrid-treated CM-5 Au sensor chip
Procedure: (§2) Then, PBS containing 100 μM of the peptide hybrid was spilled thereon at the same speed for 30 minutes. […] The surface area remaining non-reacted with the peptide hybrid was inactivated by using 1 M of ethanolamine solution (pH 8.5).

[3] = system: mouse originated antibodies (mixed composition of MIgGs 1-3); experiment: as above
Procedure: as §2

rabbit originated IgG [4] = target: T2, rabbit originated IgG (Oryctolagus cuniculus, UniProt P01870); experiment: as above
T2 construct: purchased Sigma-Aldrich (USA)
T2 sequence (P01870 whole entry): as above
Procedure: as §2

goat originated antibody = experiment: as above
Procedure: as §2

rabbit IgG [5] = target: T1, rabbit IgG; experiment: biochemical
HIgG1 [6] = experiment: SPR binding affinity (Biacore 3000, nonlinear regression); parameters: species or system human; conditions: antibody 100-1,000 nM, CM-5 chip
Procedure: The values were analyzed by nonlinear regression using BIAevaluation software equipped in Biacore 3000 to draw a theoretical line graph (FIG. 4a).

BSA = BSA (Bos taurus, UniProt P02769); experiment: SPR binding capacity on peptide-hybrid-treated CM-5 Au sensor chip (control protein)
Procedure: as §2

[7] = Stability of peptide-treated chip surface to washing with 20 mM NaOH and reuse; assay type: physicochemical; conditions: CM-5 chip, reused for antigen-antibody binding
human originated HIgG = experiment: Antibody binding to magnetic micro beads surface-treated with peptide hybrid (PAGE); conditions: antibody 0.1 mg/ml, bead 2 mg/ml
Procedure: (§3) The surface of the magnetic micro bead containing a carboxyl group was activated by loading 25 mM of MES (pH 6) containing NHS (0.4 M) and EDC (0.2 M). Only magnetic micro bead was recovered by using a magnet and the activated magnetic micro bead was reacted with 0.2 mg/ml of the peptide hybrid of 1a at room temperature for one hour. The activated magnetic micro bead was reacted with PBS alone for the control group. Non-reacted active ester group was inactivated by using 1 M of ethanolamine (pH 8.5). Both the magnetic micro bead with the peptide hybrid of 1a attached and the magnetic micro bead without the peptide hybrid of 1a were repeatedly washed by PBS and diluted in PBS (final concentration: 5 mg/ml).
(§4) To confirm the binding of the magnetic micro bead adhered with the peptide hybrid of 1a to the antibody, 2 mg/ml (final concentration) of the magnetic micro bead and 0.1 mg/ml of the antibody used in Example <3-2> were mixed to induce binding reaction. After inducing reaction for one hour at room temperature, the magnetic micro bead was dragged down to the bottom of the vessel by using a magnet and the supernatant was eliminated. This process was repeated five times to remove the non-reacted antibodies. The magnetic micro bead reacted with the antibody was added in PAGE loading buffer containing a reducing agent (2-mercaptoethanol), which was heated to separate the antibody chain from the magnetic micro bead, followed by PAGE.
(§5) The antibody bound to the magnetic micro bead was quantified by using 12% polyacrylamide gel containing 10% SDS. Particularly, 20 μl of PBS containing 2% micro bead was mixed with 5 μl of sample buffer (pH 6.8; 60 mM Tris-HCl, 25% glycerol, 2% SDS, 14.4 mM 2-mercaptoethanol, 0.1% bromophenol blue, H2O), followed by heating at 90° C. for 10 minutes. 15 μl of the sample was placed on each well of polyacrylamide gel. 200 V of voltage was applied thereto at room temperature for one hour to migrate sample, followed by dipping the gel in the staining solution (0.5% coomassie blue, 45% methanol, 10% acetic acid solution) at room temperature for 30 minutes. Upon completion of staining, the gel was transferred into the destaining solution (10% methanol, 10% acetic acid solution), followed by stirring at room temperature for 3 hours. The excessive staining reagent was eliminated by washing.

rabbit originated IgG [8] = target: T2, rabbit originated IgG; experiment: as above; conditions: antibody 0.1 mg/ml, bead 2 mg/ml
Procedure: as §3, §4, §5

mouse originated IgG = experiment: as above; conditions: antibody 0.1 mg/ml, bead 2 mg/ml
Procedure: as §3, §4, §5

goat originated IgG = experiment: as above; conditions: antibody 0.1 mg/ml, bead 2 mg/ml
Procedure: as §3, §4, §5

HIgG2 = experiment: SPR binding capacity, antibody isotypes; parameters: species or system human; conditions: CM-5 Au sensor chip
Procedure: as §2

HIgG3 = experiment: SPR binding capacity, antibody isotypes; parameters: species or system human; conditions: CM-5 Au sensor chip
Procedure: as §2

HIgG1 [9] = experiment: SPR binding capacity, antibody isotypes; parameters: species or system human; conditions: CM-5 Au sensor chip
Procedure: as §2

[10] = Storage stability of glass plate surface-treated with peptide hybrid; assay type: physicochemical; conditions: several months storage at room temperature
Procedure: The glass plate was treated with a mixed solution of 95% sulfuric acid and 5% hydrogen peroxide (V/V 3:1) at 60° C. for 30 minutes, followed by washing with distilled water and ethanol. The washed glass plate was soaked in 1% APTS, followed by reaction for 4 hours at room temperature to introduce amine group. The amine group introduced glass plate was reacted in 1 M succinic anhydride-DMF solution at 37° C. for 4 hours to generate carboxyl group on the glass plate. The glass plate was washed with distilled water and ethanol and dried using nitrogen gas and then stored in a vacuum drier. The carboxyl group introduced glass plate was treated with a mixed solution of 0.1 M EDC and 0.025 M NHS for 15 minutes to activate its surface. The activated glass plate was washed with distilled water and dried using nitrogen gas. The peptide hybrid for protein immobilization of 1a was dissolved in PBS containing 40% glycerol at the final concentration of 0.5 mg/ml, which was dropped on the glass plate by 1 μl per each drop, followed by reaction for 2 hours. The non-reacted active ester remaining on the glass plate was inactivated by using 1 M of ethanolamine (pH 8.5) and washed with PBS.
The Cy3 labeled antibody solution was dropped on the glass plate surface-treated with the hybrid of 1a by 50 μl per each drop, followed by reaction for one hour at room temperature. […]

CRP = conditions: SPR, CRP 5 μg/ml, anti-CRP antibody immobilized via the hybrid
Procedure: Then, PBS containing CRP at the same concentration as the above was spilled thereon, followed by measuring the antigen-antibody binding by surface plasmon resonance (SPR) using Biacore 3000. The surface of the chip was recovered by 20 mM NaOH solution for the repeat of the experiment to measure the antigen-antibody binding.
A buffer containing 0.2 M EDC and 0.05 M NHS was spilled on the dextran CM-5 Au sensor chip (BIacore AB, Sweden) at the speed of 7 μl/minute to activate carboxyl group on the surface of the sensor chip. Then, PBS containing 5 μg/ml of anti-CRP antibody was spilled thereon for 30 minutes at the same speed. The antibody was bound via the reaction of the terminal amine group with the carboxyl group on the sensor chip activated as NHS ester form. The surface not reacted with the antibody was inactivated by using 1 M ethanolamine solution (pH 8.5).
PBS containing 5 μg/ml of CRP was spilled on the anti-CRP antibody chip with the chemical immobilization and the anti-CRP antibody chip with the immobilization by the peptide hybrid of 1a respectively at the speed of 10 μl/minute, followed by measuring the degree of antigen-antibody binding by surface plasmon resonance using Biacore 3000.

goat IgG = experiment: Cy3-labeled antibody binding to glass plate surface-treated with peptide hybrid (fluorescence); conditions: fluorescence image
Procedure: as §1

[11] = system: MIgG (mixture of MIgG 1-MIgG 3); experiment: as above; parameters: species or system mouse; conditions: fluorescence image
Procedure: as §1

MIgGA = experiment: SPR binding capacity, antibody isotypes; parameters: species or system mouse; conditions: CM-5 Au sensor chip
Procedure: as §2

MIgG3 = experiment: SPR binding capacity, antibody isotypes; parameters: species or system mouse; conditions: CM-5 Au sensor chip
Procedure: as §2

MIgG2 = experiment: SPR binding capacity, antibody isotypes; parameters: species or system mouse; conditions: CM-5 Au sensor chip
Procedure: as §2

MIgG1 = target: T3, MIgG1 (Mus musculus, UniProt P01868); experiment: SPR binding capacity, antibody isotypes; conditions: CM-5 Au sensor chip
T3 construct: purchased Sigma-Aldrich (USA)
Procedure: as §2

[12] = system: HIgG (mixture of HIgG 1-HIgG 3); experiment: Cy3-labeled antibody binding to glass plate surface-treated with peptide hybrid (fluorescence); parameters: species or system human; conditions: fluorescence image
Procedure: as §1

[13] = system: human, rabbit, mouse and goat antibodies; experiment: SPR binding capacity on peptide-hybrid-treated CM-5 Au sensor chip, different antibodies; conditions: antibody 5 μg/ml in PBS
Procedure: as §2

CC(C)C[C@@H]1NC(=O)[C@H](Cc2c[nH]cn2)NC(=O)[C@H](Cc2c[nH]c3ccccc23)NC(=O)[C@H](C)NC(=O)[C@@H](NC(=O)[C@H](CC(=O)O)NC(=O)[C@H](CC(=O)O)NC(=O)[C@H](CCC(=O)O)NC(=O)CCOCCOCCN)CSSC[C@@H](C(=O)N[C@H](C(N)=O)[C@@H](C)O)NC(=O)[C@H](Cc2c[nH]c3ccccc23)NC(=O)[C@H](C(C)C)NC(=O)[C@H](CC(C)C)NC(=O)[C@H](CCC(=O)O)NC(=O)CNC1=O [formula 1a, H2N(CH2CH2O)2CH2CH2COEDDC*AWHLGELVWC*T-CONH2]
binding of rabbit originated antibodies to glass plate (rabbit IgG [1]): bound very well
binding to human originated antibodies (SPR), in words [2]: immobilized effectively
SPR binding level, human originated IgG ([2]; saturated level): 12000 RU
binding to mouse originated antibodies (SPR), in words [3]: not successfully immobilized; also recorded: only at minimum level
binding to rabbit originated antibodies (SPR), in words (rabbit originated IgG [4]): immobilized effectively
SPR binding level, rabbit originated IgG (rabbit originated IgG [4]; saturated level): 12000 RU
binding to goat originated antibody (SPR), in words (goat originated antibody): not successfully immobilized; also recorded: only at minimum level
Kd (rabbit IgG [5]): 305 nM
Kd (HIgG1 [6]): 85 nM
binding to BSA (SPR), in words (BSA): not bound
antibody binding capacity of the peptide-treated surface after washing with 20 mM NaOH [7]: without reducing the antibody binding capacity; also recorded: antibody binding capacity was not reduced
binding to human originated HIgG, magnetic micro bead (human originated HIgG): effectively bound
binding to rabbit originated IgG, magnetic micro bead (rabbit originated IgG [8]): effectively bound
binding to mouse originated IgG, magnetic micro bead (mouse originated IgG): not
binding to goat originated IgG, magnetic micro bead (goat originated IgG): not
binding to HIgG2 (SPR), in words (HIgG2): particularly strongly bound; also recorded: effectively bound
binding to HIgG3 (SPR), in words (HIgG3): barely bound
binding to HIgG1 (SPR), in words (HIgG1 [9]): particularly strongly bound; also recorded: effectively bound
antibody binding capacity of surface-treated glass plate after storage [10]: maintain its antibody binding capacity
antigen-antibody binding capacity relative to chip with chemically immobilized anti-CRP antibody (CRP): approximately 1.6 fold
binding of goat originated antibodies to glass plate (goat IgG): not bound well
binding of mouse originated antibodies to glass plate [11]: not bound well
binding to MIgGA (SPR), in words (MIgGA): hardly bound
binding to MIgG3 (SPR), in words (MIgG3): to some degree
binding to MIgG2 (SPR), in words (MIgG2): hardly bound
binding to MIgG1 (SPR), in words (MIgG1): hardly bound
binding of human originated antibodies to glass plate [12]: bound very well

H2N(CH2CH2O)nCH2CH2COXDC*AWHLGELVWC*T-CONH2 [formula 1]
binding to the different types of antibodies (SPR) [13]: strongly attached
binding to human originated antibodies (SPR), in words [2]: strongly bound
binding to rabbit originated antibodies (SPR), in words (rabbit originated IgG [4]): strongly bound
